Measurements published in patent publication US7034000B2, “Peptides derived from the human amyloid precursor protein” (The Brigham and Women's Hospital, Inc., priority 2000, dated 2006).

Experiment: ferrozine based iron oxidation (ferroxidase) assay
Type: biochemical
Conditions: for Vmax, rate of iron oxidation: another set of ferrozine-based assays, 0.5 μM each; for Vmax of iron oxidation: first set, 6.5 nM of protein; for ferroxidase activity when synthesized as a distinct peptide: statement in summary, no values
Protocol: Computer-based alignments of APP and H-ferritin were run using the Gap and Bestfit sequence alignment programs for Vax software. […] Bovine serum albumin (BSA) served as a negative control for these experiments since 6.5 μM BSA provided a 5-fold lower apparent rate of iron oxidation (an apparent reaction rate of 0.1 μM iron oxidized per minute). It was concluded that purified, secreted APP ectodomain specifically catalyzes the oxidation of 100-fold more iron per minute than the amount of APP present. This is an indication that APP harbors one or more sites for catalytic iron oxidation.
Using synthetic peptides, it was confirmed that sequences overlapping the newly identified FOX-1 domain in APP function as intrinsic ferroxidases. A peptide designated as “A2” (coding for residues 316 to 337 in APP-695)was tested. […] Ceruloplasmin (Cp) was used as a positive control since Cp is a known copper-dependent iron oxidase. […] The standard error for each of these reactions was less than 5%.
The known RERMS domain of APP (319 to 335 with respect to APP-695) is a cytoprotective region of APP and overlaps the A2 to peptide described above. […] The 827 sequence is HRBRMSQVMREWEEAERQAKNL (SEQ ID NO: 6), encoding 9 amino terminal amino acids that overlap with the RERMS peptide. In addition, 827 has 13 unique amino acids that align with the ferritin iron oxidase domain, as present in FOX-1. […] It was concluded that peptides spanning sequences from 316 to 346 of APP-695 can be used as agents to protect cells from iron catalyzed cellular damage.

A2 peptide: synthetic peptide coding for residues 316 to 337 in APP-695, overlaps RERMS domain (CAPFFYGGCGGNRNNFDTEEYC; APP695; UniProt P05067 316-337, looked up, fragment)
rate of iron oxidation compared with BSA or RNase-A (0.5 μM): significantly higher
Vmax, rate of iron oxidation: 2.78 µM/min
iron oxidase activity Vmax (second set, 0.5 μM peptide): 2.96 μM/min/0.5 μM peptide

APP: purified, secreted human amyloid precursor protein ectodomain
Vmax of iron oxidation: 0.5 µM/min
iron oxidized per minute relative to the amount of APP present (purified, secreted APP ectodomain): 100 fold

DGDEVEEEAEPYEEATERTTSIA (listed as Homo sapiens) [FOX-2, peptide corresponding to the complete FOX-2 domain, between amino acids 250 and 273 in APP-695]
ferroxidase activity when synthesized as a distinct peptide: has ferroxidase activity

HRERMSQVMREWEEAERQAKNL (listed as Homo sapiens) [827 peptide, first 13 N-terminal amino acids of FOX-1 fused to nine amino acids from the RERMS domain of APP-695 (327–348)]
Vmax, rate of iron oxidation: 7.36 µM/min

REWEEAERQAKNLPKADKKAVIQH (listed as Homo sapiens) [FOX-1]
ferroxidase activity when synthesized as a distinct peptide: has ferroxidase activity

B1: RNase-A: negative control protein (protein, UniProt P61823 27-150, looked up)
Ribonuclease pancreatic: KETAAAKFERQHMDSSTSAASSSNYCNQMMKSRNLTKDRCKPVNTFVHESLADVQAVCSQKNVACKNGQTNCYQSYSTMSITDCRETGSSKYPNCAYKTTQANKHIIVACEGNPYVPVHFDASV
apparent Vmax (second set, 0.5 μM, n=6, negative control): 1.96 µM iron/min/0.5 µM peptide

B2: Ceruloplasmin: known copper-dependent iron oxidase (ferroxidase), positive control (protein, UniProt P00450 20-1065, looked up)
Ceruloplasmin: KEKHYYIGIIETTWDYASDHGEKKLISVDTEHSNIYLQNGPDRIGRLYKKALYLQYTDETFRTTIEKPVWLGFLGPIIKAETGDKVYVHLKNLASRPYTFHSHGITYYKEHEGAIYPDNTTDFQRADDKVYPGEQYTYMLLATEEQSPGEGDGNCVTRIYHSHIDAPKDIASGLIGPLIICKKDSLDKEKEKHIDREFVVMFSVVDENFSWYLEDNIKTYCSEPEKVDKDNEDFQESNRMYSVNGYTFGSLPGLSMCAEDRVKWYLFGMGNEVDVHAAFFHGQALTNKNYRIDTINLFPATLFDAYMVAQNPGEWMLSCQNLNHLKAGLQAFFQVQECNKSSSKDNIRGKHVRHYYIAAEEIIWNYAPSGIDIFTKENLTAPGSDSAVFFEQGTTRIGGSYKKLVYREYTDASFTNRKERGPEEEHLGILGPVIWAEVGDTIRVTFHNKGAYPLSIEPIGVRFNKNNEGTYYSPNYNPQSRSVPPSASHVAPTETFTYEWTVPKEVGPTNADPVCLAKMYYSAVEPTKDIFTGLIGPMKICKKGSLHANGRQKDVDKEFYLFPTVFDENESLLLEDNIRMFTTAPDQVDKEDEDFQESNKMHSMNGFMYGNQPGLTMCKGDSVVWYLFSAGNEADVHGIYFSGNTYLWRGERRDTANLFPQTSLTLHMWPDTEGTFNVECLTTDHYTGGMKQKYTVNQCRRQSEDSTFYLGERTYYIAAVEVEWDYSPQREWEKELHHLQEQNVSNAFLDKGEFYIGSKYKKVVYRQYTDSTFRVPVERKAEEEHLGILGPQLHADVGDKVKIIFKNMATRPYSIHAHGVQTESSTVTPTLPGETLTYVWKIPERSGAGTEDSACIPWAYYSTVDQVKDLYSGLIGPLIVCRRPYLKVFNPRRKLEFALLFLVFDENESWYLDDNIKTYSDHPEKVNKDDEEFIESNKMHAINGRMFGNLQGLTMHVGDEVNWYLMGMGNEIDLHTVHFHGHSFQYKHRGVYSSDVFDIFPGTYQTLEMFPRTPGIWLLHCHVTDHIHAGMETTYTVLQNEDTKSG
Vmax, rate of iron oxidation: 6.41 µM/min
Vmax of iron oxidation: 5 µM/min
reaction velocity (Vmax) (second set, 0.5 μM protein, n=6, positive control): 4.2 µM iron/min/0.5 µM protein

B3: RNaseTI: control protein in the second set of ferrozine-based assays (protein, UniProt P00651 27-130, looked up)
Guanyl-specific ribonuclease …: ACDYTCGSNCYSSSDVSTAQAAGYQLHEDGETVGSNSYPHKYNNYEGFDFSVSSPYYEWPILSSGDVYSGGSPGADRVVFNENNQLAGVITHTGASGNNFVECT
Vmax, rate of iron oxidation: 1.05 µM/min
